Measurements: patent US8802700B2 (Vertex Pharmaceuticals Incorporated, priority 2010, dated 2014)

Target: T1, ΔF508-CFTR (Homo sapiens, UniProt P13569, DEL508-508)
T1 construct: expressed in transfected cells
Test: Membrane potential optical assay (FRET voltage-sensor dyes, VIPR), identification of potentiator compounds
Format: cell-based
Details: Table 3, assay not given; for Emax: read-out: % Activity (% Efficacy, relative efficacy)
In short: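 NIH3T3 mouse fibroblasts stably expressing ΔF508-CFTR, cultured 24 h at 27 °C, were loaded with FRET voltage dyes CC2-DMPE and DiSBAC2(3). Double-addition format: first addition of Cl⁻-free (gluconate) medium with or without compound; membrane-potential change read as fluorescence on VIPR II.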

T1 sequence (P13569 with tags, fused parts or gaps DEL508-508): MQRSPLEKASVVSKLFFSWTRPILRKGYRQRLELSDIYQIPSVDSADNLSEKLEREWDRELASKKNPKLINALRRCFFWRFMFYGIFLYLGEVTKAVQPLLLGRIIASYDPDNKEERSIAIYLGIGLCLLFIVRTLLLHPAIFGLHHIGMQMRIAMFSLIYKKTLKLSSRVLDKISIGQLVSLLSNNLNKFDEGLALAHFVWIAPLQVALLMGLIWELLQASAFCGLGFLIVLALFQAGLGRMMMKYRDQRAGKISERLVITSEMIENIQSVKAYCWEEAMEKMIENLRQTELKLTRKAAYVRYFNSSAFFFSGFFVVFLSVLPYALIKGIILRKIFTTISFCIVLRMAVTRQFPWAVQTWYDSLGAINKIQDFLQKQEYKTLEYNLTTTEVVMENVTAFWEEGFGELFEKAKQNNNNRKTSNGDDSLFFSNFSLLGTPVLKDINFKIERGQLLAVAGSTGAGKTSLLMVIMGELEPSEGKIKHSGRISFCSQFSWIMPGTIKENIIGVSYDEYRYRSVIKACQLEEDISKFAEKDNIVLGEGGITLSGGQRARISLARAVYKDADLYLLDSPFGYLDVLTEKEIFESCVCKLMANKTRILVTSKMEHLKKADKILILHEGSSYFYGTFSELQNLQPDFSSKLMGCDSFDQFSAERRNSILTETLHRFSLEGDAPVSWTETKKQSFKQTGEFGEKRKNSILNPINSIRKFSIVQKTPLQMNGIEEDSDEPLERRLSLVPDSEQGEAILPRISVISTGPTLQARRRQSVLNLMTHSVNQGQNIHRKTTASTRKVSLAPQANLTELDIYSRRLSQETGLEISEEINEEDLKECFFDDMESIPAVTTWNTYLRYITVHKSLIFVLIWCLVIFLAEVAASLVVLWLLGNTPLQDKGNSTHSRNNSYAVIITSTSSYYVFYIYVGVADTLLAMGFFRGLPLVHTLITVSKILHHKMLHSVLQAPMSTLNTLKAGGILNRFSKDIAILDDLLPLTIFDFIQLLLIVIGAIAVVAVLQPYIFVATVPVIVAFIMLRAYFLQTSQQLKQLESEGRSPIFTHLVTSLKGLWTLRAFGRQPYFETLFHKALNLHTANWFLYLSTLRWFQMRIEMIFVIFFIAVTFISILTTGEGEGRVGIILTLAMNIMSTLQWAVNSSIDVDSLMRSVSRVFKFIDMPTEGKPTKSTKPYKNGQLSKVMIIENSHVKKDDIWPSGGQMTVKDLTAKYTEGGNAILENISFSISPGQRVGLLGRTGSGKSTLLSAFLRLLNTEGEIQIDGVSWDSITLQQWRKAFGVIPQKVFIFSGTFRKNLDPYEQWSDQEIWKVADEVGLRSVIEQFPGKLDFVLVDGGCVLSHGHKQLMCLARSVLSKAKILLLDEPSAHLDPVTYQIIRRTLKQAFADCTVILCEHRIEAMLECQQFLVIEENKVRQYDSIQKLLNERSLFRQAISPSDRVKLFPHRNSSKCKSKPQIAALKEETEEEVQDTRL

Structure (SMILES) | Emax [%] | EC50 [µM]
O=C(Nc1ccc(N2CC[C@@H](O)C2)cc1C(F)(F)F)c1c[nH]c2ccccc2c1=O [Compound 705, (R)-N-(4-(3-hydroxypyrrolidin-1-yl)-2-(trifluoromethyl)phenyl)-4-oxo-1,4-dihydroquinoline-3-carboxamide] | 25 to 100 | –
CN(c1ccc(F)cc1)S(=O)(=O)c1ccc2[nH]cc(C(=O)Nc3cc4[nH]ccc4cc3C(C)(C)C)c(=O)c2c1 [Compound 406, 6-[(4-fluorophenyl)-methyl-sulfamoyl]-4-oxo-N-(5-tert-butyl-1H-indol-6-yl)-1H-quinoline-3-carboxamide] | 25 to 100 | –
CC(C)(C)c1cc2cc[nH]c2cc1NC(=O)c1c[nH]c2cc(OC(F)(F)F)ccc2c1=O [Compound 632, 4-oxo-N-(5-tert-butyl-1H-indol-6-yl)-7-(trifluoromethoxy)-1H-quinoline-3-carboxamide] | 25 to 100 | –
CCn1cc(C(=O)Nc2ccccc2)c(=O)c2cc(OC)ccc21 [Compound 480, 1-ethyl-6-methoxy-4-oxo-N-phenyl-1H-quinoline-3-carboxamide] | < 25 | –
O=C(Nc1ccc(-c2ccccc2)cc1)c1c[nH]c2ccccc2c1=O [Compound 397, 4-oxo-N-(4-phenylphenyl)-1H-quinoline-3-carboxamide] | 25 to 100 | –
N#Cc1cc2ccc(NC(=O)c3c[nH]c4ccccc4c3=O)cc2[nH]1 [Compound 270, N-(2-cyano-1H-indol-6-yl)-4-oxo-1H-quinoline-3-carboxamide] | 25 to 100 | –
O=C(Nc1cc(N2CCCC2)cc(C(F)(F)F)c1)c1c[nH]c2ccccc2c1=O [Compound 593, 4-oxo-N-[3-pyrrolidin-1-yl-5-(trifluoromethyl)phenyl]-1H-quinoline-3-carboxamide] | 25 to 100 | –
COc1nc2ccccc2c(OC)c1C(=O)Nc1ccccc1C(C)(C)C [Compound 296, 2,4-dimethoxy-N-(2-tert-butylphenyl)-quinoline-3-carboxamide] | 25 to 100 | –
O=C(Nc1cc2[nH]ccc2cc1-c1ccccc1)c1c[nH]c2ccccc2c1=O [Compound 158, 4-Oxo-N-(5-phenyl-1H-indol-6-yl)-1H-quinoline-3-carboxamide] | 25 to 100 | –
O=C(Nc1ccccc1-c1ccccn1)c1c[nH]c2ccccc2c1=O [Compound 692, 4-oxo-N-[2-(2-pyridyl)phenyl]-1H-quinoline-3-carboxamide] | 25 to 100 | –
O=C(Nc1ccc2c(c1)S(=O)(=O)C=C2)c1c[nH]c2ccccc2c1=O [Compound 446, N-(1,1-dioxobenzothiophen-6-yl)-4-oxo-1H-quinoline-3-carboxamide] | < 25 | –
CCOc1ccccc1-c1cc2cc[nH]c2cc1NC(=O)c1c[nH]c2ccccc2c1=O [Compound 327, N-[5-(2-ethoxyphenyl)-1H-indol-6-yl]-4-oxo-1H-quinoline-3-carboxamide] | 25 to 100 | –
CC(C)(C)c1c[nH]c2cc(NC(=O)c3c[nH]c4ccccc4c3=O)ccc12 [Compound 478, 4-oxo-N-(3-tert-butyl-1H-indol-6-yl)-1H-quinoline-3-carboxamide] | 25 to 100 | –
CC(C)(C)c1cc(C(C)(C)C)c(NC(=O)c2c[nH]c3ccc(C#N)cc3c2=O)cc1O [Compound 525, 6-cyano-N-(5-hydroxy-2,4-ditert-butyl-phenyl)-4-oxo-1H-quinoline-3-carboxamide] | < 25 | –
CC(C)(C)c1cc(F)c(NC(=O)c2c[nH]c3cccc(O)c3c2=O)cc1O [Compound 407, N-(2-fluoro-5-hydroxy-4-tert-butyl-phenyl)-5-hydroxy-4-oxo-1H-quinoline-3-carboxamide] | 25 to 100 | –
O=C(Nc1ccc2c(c1)NCC21CC1)c1c[nH]c2ccccc2c1=O [Compound 22, 4-Oxo-1,4-dihydro-quinoline-3-carboxylic acid N-(1′,2′-dihydrospiro[cyclopropane-1,3′-[3H]indol]-6′-yl)-amide] | 25 to 100 | –
CCc1ccc2ncc(C(=O)Nc3ccc4cc[nH]c4c3)c(O)c2c1 [Compound 67, 6-ethyl-4-hydroxy-N-(1H-indol-6-yl)quinoline-3-carboxamide] | 25 to 100 | –
COCCOCC(C)(C)c1ccc(NC(=O)c2c[nH]c3ccccc3c2=O)cc1O [Compound 126, N-[3-hydroxy-4-[2-(2-methoxyethoxy)-1,1-dimethyl-ethyl]-phenyl]-4-oxo-1H-quinoline-3-carboxamide] | 25 to 100 | –
Cc1ccc2[nH]cc(C(=O)Nc3ccc(N4CCCC4C)cc3C(F)(F)F)c(=O)c2c1 (stereo not shown) [Compound 503, 6-methyl-N-[4-(2-methylpyrrolidin-1-yl)-2-(trifluoromethyl)phenyl]-4-oxo-1H-quinoline-3-carboxamide] | 25 to 100 | –
CC(C)COC(=O)NCC(C)(C)c1ccc(NC(=O)c2c[nH]c3ccccc3c2=O)cc1 [Compound 251, [2-methyl-2-[4-[(4-oxo-1H-quinolin-3-yl)carbonylamino]phenyl]-propyl]aminoformic acid isobutyl ester] | 25 to 100 | –
Cc1ccc2c(=O)c(C(=O)Nc3cc(O)c(C4(C)CCCCC4)cc3F)c[nH]c2c1 [Compound 499, N-[2-fluoro-5-hydroxy-4-(1-methylcyclohexyl)-phenyl]-7-methyl-4-oxo-1H-quinoline-3-carboxamide] | 25 to 100 | –
O=C(Nc1ccc(N2CCCC2)cc1)c1c[nH]c2ccccc2c1=O [Compound 674, 4-oxo-N-(4-pyrrolidin-1-ylphenyl)-1H-quinoline-3-carboxamide] | 25 to 100 | < 10
COc1ccc(-c2ccccc2NC(=O)c2c[nH]c3ccccc3c2=O)cc1OC [Compound 436, N-[2-(3,4-dimethoxyphenyl)phenyl]-4-oxo-1H-quinoline-3-carboxamide] | 25 to 100 | –
O=C(Nc1cccc(-c2cccs2)c1)c1c[nH]c2ccccc2c1=O [Compound 549, 4-oxo-N-[3-(2-thienyl)phenyl]-1H-quinoline-3-carboxamide] | 25 to 100 | –
COc1ccccc1-c1ccccc1NC(=O)c1c[nH]c2ccccc2c1=O [Compound 355, N-[2-(2-methoxyphenyl)phenyl]-4-oxo-1H-quinoline-3-carboxamide] | 25 to 100 | –
O=C(Nc1ccccc1-c1ccc(C(F)(F)F)cc1)c1c[nH]c2ccccc2c1=O [Compound 366, 4-oxo-N-[2-[4-(trifluoromethyl)phenyl]phenyl]-1H-quinoline-3-carboxamide] | 25 to 100 | –
O=C(Nc1cc(C(F)(F)F)ccc1C(F)(F)F)c1c[nH]c2ccccc2c1=O [Compound 630, N-[2,5-bis(trifluoromethyl)phenyl]-4-oxo-1H-quinoline-3-carboxamide] | 25 to 100 | –
CC1(c2ccc(NC(=O)c3c[nH]c4cccc(O)c4c3=O)cc2)COC1 [Compound 529, 5-hydroxy-N-[4-(3-methyloxetan-3-yl)phenyl]-4-oxo-1H-quinoline-3-carboxamide] | 25 to 100 | –

Other lines, results leading:

Emax [%] | EC50 [µM] | Structure (SMILES)
25 to 100 | – | O=C(Nc1cccc2c1CCC2)c1c[nH]c2ccccc2c1=O [Compound 373, N-indan-4-yl-4-oxo-1H-quinoline-3-carboxamide]
25 to 100 | – | CSc1ccccc1NC(=O)c1c[nH]c2ccccc2c1=O [Compound 229, N-(2-methylsulfanylphenyl)-4-oxo-1H-quinoline-3-carboxamide]
25 to 100 | – | CCOc1ccccc1-c1ccc(CN)cc1NC(=O)c1c[nH]c2ccccc2c1=O [Compound 163, 4-Oxo-1,4-dihydro-quinoline-3-carboxylic acid (4-aminomethyl-2′-ethoxy-biphenyl-2-yl)-amide]
25 to 100 | – | N#Cc1cccc(NC(=O)c2c[nH]c3ccccc3c2=O)c1 [Compound 447, N-(3-cyanophenyl)-4-oxo-1H-quinoline-3-carboxamide]
> 100 | – | C=C(C)c1ccccc1NC(=O)c1c[nH]c2ccccc2c1=O [Compound 445, N-(2-isopropenylphenyl)-4-oxo-1H-quinoline-3-carboxamide]
< 25 | – | NS(=O)(=O)c1ccc(NC(=O)c2c[nH]c3ccccc3c2=O)cc1 [Compound 165, 4-oxo-N-(4-sulfamoylphenyl)-1H-quinoline-3-carboxamide]
25 to 100 | – | O=C1CSc2ccc(NC(=O)c3c[nH]c4ccccc4c3=O)cc2N1 [Compound 262, 1,4-dihydro-N-(3,4-dihydro-3-oxo-2H-benzo[b][1,4]thiazin-6-yl)-4-oxoquinoline-3-carboxamide]
< 25 | – | NS(=O)(=O)c1ccccc1NC(=O)c1c[nH]c2ccccc2c1=O [Compound 78, 4-oxo-N-(2-sulfamoylphenyl)-1H-quinoline-3-carboxamide]
< 25 | – | O=C(Nc1ccc2[nH]c(=O)[nH]c2c1)c1c[nH]c2ccccc2c1=O [Compound 64, 4-oxo-N-(2-oxo-1,3-dihydrobenzoimidazol-5-yl)-1H-quinoline-3-carboxamide]
25 to 100 | – | CCc1cc(Br)ccc1NC(=O)c1c[nH]c2ccccc2c1=O [Compound 263, N-(4-bromo-2-ethyl-phenyl)-4-oxo-1H-quinoline-3-carboxamide]
25 to 100 | – | COc1cccc(NC(=O)c2c[nH]c3ccccc3c2=O)c1 [Compound 408, N-(3-methoxyphenyl)-4-oxo-1H-quinoline-3-carboxamide]
25 to 100 | – | CCCCc1ccccc1NC(=O)c1c[nH]c2ccccc2c1=O [Compound 336, N-(2-butylphenyl)-4-oxo-1H-quinoline-3-carboxamide]
25 to 100 | – | CC(C)(C)c1ccc(NC(=O)c2c[nH]c3ccccc3c2=O)c(Cl)c1 [Compound 362, N-(2-chloro-4-tert-butyl-phenyl)-4-oxo-1H-quinoline-3-carboxamide]
< 25 | – | Cc1ccc(C(N)=O)c(NC(=O)c2c[nH]c3ccccc3c2=O)c1 [Compound 335, N-(2-carbamoyl-5-methyl-phenyl)-4-oxo-1H-quinoline-3-carboxamide]
25 to 100 | – | CCCc1ccccc1NC(=O)c1c[nH]c2ccccc2c1=O [Compound 16, 4-oxo-N-(2-propylphenyl)-1H-quinoline-3-carboxamide]
25 to 100 | < 10 | CCCc1ccc(N)cc1NC(=O)c1c[nH]c2ccccc2c1=O [Compound 41, N-(5-amino-2-propyl-phenyl)-4-oxo-1H-quinoline-3-carboxamide]
